# Measurements published in PubChem BioAssay AID602234 (The Scripps Research Institute Molecular Screening Center, 2012).
# Active and inactive are the calls of the source. No rule for the calls is given here.
# Assay: NCOA3 reporter inhibition potency – cell-based, luminescence, counter-screen for SRC1 inhibitor project, dose response (AID 602234);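 also: HEK293 cells co-transfected with pGL4.31 reporter and pBIND-SRC3 fusion vector; potency for inhibition of reporter luminescence with Gossypol as full inhibition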
# Conditions: transfected HEK293 cells, counter-screen luciferase reporter
row,SMILES,IC50
1,CC1CC(C)C(=NNC(N)=O)C(C(O)CC2CCC(=O)NC2=O)C1 (centres undefined),7.99 µM
2,NNC(=O)c1cc2ccccc2cc1O,1.57 µM
3,CC(C)Cn1c(N)c(C(=O)COC(=O)c2cc3ccccc3cc2O)c(=O)n(C)c1=O,> 12 µM (inactive)
4,O=C(Nc1cccc(C(F)(F)F)c1)Nc1nnc([C@@H]2C[C@H](O)[C@@H](CO)O2)s1,4.17 µM
5,CC(C)(C)c1cc(C(=O)N/N=C/c2ccc(O)cc2)n(-c2ccccc2)n1,27.1 µM (inactive)
6,CN1CCN(c2cccc3c2C(=O)c2ccccc2C3=O)CC1,> 35.9 µM (inactive)
7,O=C(CCC(=O)Nc1ccc(Br)cc1)N/N=C/c1ccccc1O,4.33 µM
8,Cc1nn(CC(=O)N2CCN(c3cccc(C(F)(F)F)c3)CC2)c(=O)c2cccn12,5.11 µM
9,COc1ccc(-n2cnc(N)c2C(=O)c2cccc([N+](=O)[O-])c2)cc1,3.87 µM
10,CCOc1ccc(-c2noc(CCC(=O)O)n2)cc1,15.2 µM (inactive)
11,Cc1ccc(S(=O)(=O)N2[C@@H](c3ccc(C(C)(C)C)cc3)C(C(=O)O)=CC[C@H]2c2ccc(Cl)cc2)cc1,10.4 µM (inactive)
12,O=C(COC(=O)c1ccc[nH]c1=O)Nc1ccc(N2CCCCC2)cc1,5.35 µM
13,COc1ccccc1NS(=O)(=O)c1cccc(NC(=O)c2cncc(Br)c2)c1,7.71 µM
14,Oc1ccc(C=NNc2ccccn2)c(O)c1,6.53 µM
15,CCn1c(Oc2cccc(Br)c2)nc2c1c(=O)n(C)c(=O)n2C,17 µM (inactive)
16,COc1ccccc1N(C(=O)CCl)c1cn(C(C)=O)c2ccccc12,3.76 µM
17,COc1ccc(C(O)(C(C)C)C(CN2CCOCC2)c2ccc(Cl)cc2)cc1 (centres undefined),13.4 µM (inactive)
18,S=C(Nc1ccccc1)Nc1ccc(OCc2ccc(Cl)cc2Cl)cc1,1.39 µM
19,CCc1c(C)nc2c(C)cccc2c1SCCC#N,13.6 µM (inactive)
20,COc1ccc(NC(=O)CN(C)C(=O)C2(c3ccccc3)CCCC2)cc1,5.39 µM
21,CC(=O)N1CCN(c2ccc(Oc3ncnc4sccc34)cc2)CC1,4.79 µM
22,CNc1cccnc1C=NNC(N)=S,0.522 µM
23,Cc1ccc(C)c(NC(=O)c2ccccc2NS(=O)(=O)c2cc([N+](=O)[O-])ccc2C)c1,1.44 µM
24,OCCN(CCO)CC(O)COc1ccc(C23CC4CC(CC(C4)C2)C3)cc1 (centres undefined),12.1 µM (inactive)
25,COc1ccc(CNc2ncc(-c3ccc(F)cc3)n2C)c2ccccc12,11.6 µM (inactive)
26,O=C(CCCc1nc(-c2ccccc2Cl)no1)NC1CCCC1,3.59 µM
27,Cc1ccc2nc(C(F)(F)F)c(C#N)c(N)c2c1,5.13 µM

row,SMILES,IC50
1,COc1ccc2ncn(-c3ccccc3)c2c1,2.99 µM
2,CCOc1ccccc1-n1c(SCC(=O)Nc2ccccc2C(=O)O)nc2ccccc2c1=O,9.64 µM
3,COc1ccc(/C=C2/SC(=S)N(CCC(=O)O)C2=O)cc1,1.07 µM
4,O=C(OC(c1ccccc1)c1nccc2ccccc12)c1ccccc1 (centres undefined),0.661 µM
5,Nc1ccc(-c2cc3ccccc3oc2=O)cc1,3.62 µM
6,CCc1ccc(/C=C2\SC(=S)N(CCCC(=O)NCCCN3CCOCC3)C2=O)cc1,3.28 µM
7,Cc1ccc(O)c(Nc2ncnc3ccc([N+](=O)[O-])cc23)c1,3.59 µM
8,O=C(O)c1ccccc1C(=O)Nc1ccc(Oc2cccc3ccccc23)cc1,> 35.9 µM (inactive)
9,CC(NC(=O)COC(=O)c1cccs1)c1ccccc1 (centres undefined),> 35.9 µM (inactive)
10,COc1cc(OC)c2cc(C(=O)N/N=C/c3cccc(OC)c3O)[nH]c2c1,3.56 µM
11,COC(CN(C(=O)CCl)C(C(=O)NC1CCCCC1)c1ccccc1C)OC (centres undefined),3.76 µM
12,COc1cc([C@@H]2c3cc4c(cc3[C@@H](O[C@@H]3O[C@@H]5CO[C@@H](C)O[C@H]5[C@H](O)[C@H]3O)[C@H]3COC(=O)[C@H]23)OCO4)cc(OC)c1O,0.375 µM
13,CCOC(=O)CSc1cc(-c2ccccc2)nc2ncnn12,> 35.9 µM (inactive)
14,C=CCOc1ccc(/C=C2\SC(=S)N(CCC(=O)O)C2=O)cc1,3.47 µM
15,S=C(c1ccc(-c2ccccc2)cc1)N1CCOCC1,7.59 µM
16,Cc1ccc2occ(/C=N/NC(=O)c3ccncc3)c(=O)c2c1,15.3 µM (inactive)
17,CCOc1ccc(/C=C2\SC(=S)N(CCCC(=O)NCCCN3CCOCC3)C2=O)cc1,5.91 µM
18,Cc1cccc(C)c1-n1nnnc1C(c1cccs1)N1CCC2(CC1)C(=O)NCN2c1ccccc1 (centres undefined),18.9 µM (inactive)
19,Cc1nc2c(-c3ccc(Cl)cc3)c(C)[nH]n2c(=O)c1Cc1ccccc1,4.49 µM
20,COc1cc(C2c3cc4c(cc3C(OC3OC5COC(c6cccs6)OC5C(O)C3O)C3COC(=O)C23)OCO4)cc(OC)c1O (centres undefined),0.0913 µM
21,CC1CCN(C(=O)c2scc3c2OCCO3)CC1,10 µM (inactive)
22,Nc1ccc(Oc2ccccc2-c2ccccc2)cc1,7.34 µM
23,O=C1CCC/C1=c1\s/c(=C/c2cccnc2)c(=O)n1-c1ccccc1,6.2 µM
24,CCCS(=O)(=O)Nc1ccc(Nc2c3ccccc3nc3ccccc23)c(OC)c1,1.01 µM
25,NC(=O)c1cc(Sc2ccccc2)nc2ccccc12,10.9 µM (inactive)
26,O=C(CCl)N(c1ccccc1)C1CCS(=O)(=O)C1 (centres undefined),1.74 µM
27,CCn1c(Oc2ccc(F)cc2)nc2c1c(=O)n(C)c(=O)n2C,3.24 µM
